Results published in PubChem BioAssay AID274 (DTP/NCI, 2004).
Toxic doses and inconclusive results are not listed. The calls were made as follows: active = survival T/C of 150% or more; inactive = T/C below 125% in these data.

Test system: BDF1 mice, Lewis lung carcinoma iv, survival T/C
Assay: NCI In Vivo Anticancer Drug Screen. Data for tumor model Lewis Lung Carcinoma (intravenous) in B6D2F1 (BDF1) mice
Conditions: endpoint: median survival time, schedule: Q01DX009 (ip), higher = longer survival
Protocol: The antitumor activity of compounds was measured in mice bearing transplantable tumors. Survival or tumor size were measured and the results are expressed as the measurement made in the treated group (T) divided by the measurement made in the vehicle treated control group (C). The tumor model used in this assay is Lewis Lung Carcinoma (intravenous) in B6D2F1 (BDF1) mice

[1] = dose: 50.0 mg/kg/injection, vehicle: Klucel (hydroxypropylcellulose) (HPC)
[2] = dose: 25.0 mg/kg/injection, vehicle: Klucel (hydroxypropylcellulose) (HPC)
[3] = dose: 6.25 mg/kg/injection, vehicle: saline
[4] = dose: 12.5 mg/kg/injection, vehicle: saline
[5] = dose: 25.0 mg/kg/injection, vehicle: saline
[6] = dose: 50.0 mg/kg/injection, vehicle: saline
[7] = dose: 100.0 mg/kg/injection, vehicle: saline
[8] = dose: 200.0 mg/kg/injection, vehicle: saline
[9] = dose: 12.5 mg/kg/injection, vehicle: saline with Tween-80
[10] = dose: 25.0 mg/kg/injection, vehicle: saline with Tween-80
[11] = dose: 50.0 mg/kg/injection, vehicle: saline with Tween-80
[12] = dose: 100.0 mg/kg/injection, vehicle: saline with Tween-80
[13] = dose: 200.0 mg/kg/injection, vehicle: saline with Tween-80
[14] = dose: 400.0 mg/kg/injection, vehicle: saline with Tween-80

Measured: T/C

OC(CBr)C(O)C(O)C(O)CBr (stereo unspecified)
inactive: [1] 117 % of control | dose: 100.0 mg/kg/injection, vehicle: Klucel (hydroxypropylcellulose) (HPC) 109 % of control | dose: 200.0 mg/kg/injection, vehicle: Klucel (hydroxypropylcellulose) (HPC) 103 % of control | dose: 400.0 mg/kg/injection, vehicle: Klucel (hydroxypropylcellulose) (HPC) 111 % of control | dose: 800.0 mg/kg/injection, vehicle: Klucel (hydroxypropylcellulose) (HPC) 97 % of control

Cc1cc(N(CCOS(C)(=O)=O)CCOS(C)(=O)=O)ccc1C=Nc1ccc(-c2nc(Cc3ccccc3)sc2C)cc1
inactive: [2] 117 % of control | [1] 87 % of control

C(CSC1=NCCN1)CSC1=NCCN1
inactive: [3] 93 % of control | [4] 100 % of control | [5] 93 % of control | [6] 93 % of control | [7] 102 % of control | [8] 100 % of control

Cc1ccc2c(c1)N=C(Nc1ccccc1)N=S2(C)=O (stereo unspecified)
inactive: dose: 6.25 mg/kg/injection, vehicle: saline with Tween-80 102 % of control | [9] 102 % of control | [10] 111 % of control | [11] 112 % of control | [12] 115 % of control | [13] 116 % of control

O=C(Nc1cccc(Cl)c1)ON1C(=O)C2C(C1=O)C1(Cl)C(Cl)C(Cl)C2(Cl)C1(Cl)Cl (stereo unspecified)
inactive: [11] 98 % of control | [13] 87 % of control

CC(=O)OCC1OC(n2cc(CBr)nn2)C(OC(C)=O)C(OC(C)=O)C1OC(C)=O (stereo unspecified)
inactive: dose: 3.12 mg/kg/injection, vehicle: Klucel (hydroxypropylcellulose) (HPC) 87 % of control | dose: 6.25 mg/kg/injection, vehicle: Klucel (hydroxypropylcellulose) (HPC) 88 % of control | dose: 12.5 mg/kg/injection, vehicle: Klucel (hydroxypropylcellulose) (HPC) 102 % of control | [2] 106 % of control | [1] 96 % of control

Nc1cc(=O)[nH][nH]1
inactive: [12] 99 % of control | [13] 91 % of control | [14] 95 % of control

CC1(C)COCN1COCCOCN1COCC1(C)C
inactive: [3] 114 % of control | [4] 97 % of control | [5] 106 % of control | [6] 122 % of control | [7] 95 % of control

O=C(N/N=C\c1cc(Br)cc(Br)c1O)N/N=C/c1cc(Br)cc(Br)c1O
inactive: [9] 91 % of control | [10] 96 % of control | [11] 98 % of control | [12] 96 % of control | [13] 98 % of control | [14] 96 % of control

C[C@]12CC[C@H]3[C@@H](CCC4=C[C@@H](OC5OCC(OC6OC(CO)C(O)C(O)C6O)C(O)C5O)CC[C@@]43C=O)[C@@]1(O)CCC2C1=CC(=O)OC1 (stereo partly specified)
inactive: dose: 0.16 mg/kg/injection, vehicle: Klucel (hydroxypropylcellulose) (HPC) 99 % of control | dose: 0.31 mg/kg/injection, vehicle: Klucel (hydroxypropylcellulose) (HPC) 100 % of control | dose: 0.63 mg/kg/injection, vehicle: Klucel (hydroxypropylcellulose) (HPC) 102 % of control | dose: 1.25 mg/kg/injection, vehicle: Klucel (hydroxypropylcellulose) (HPC) 99 % of control | dose: 2.5 mg/kg/injection, vehicle: Klucel (hydroxypropylcellulose) (HPC) 122 % of control | dose: 5.0 mg/kg/injection, vehicle: Klucel (hydroxypropylcellulose) (HPC) 122 % of control

CN1c2ccc3ccccc3c2Sc2ccc3ccccc3c21
inactive: [12] 98 % of control | [13] 98 % of control | [14] 111 % of control

Nc1ccc(OC(=O)Oc2ccc(N)cc2)cc1
inactive: [7] 102 % of control | [8] 113 % of control
